Test results as given in patent US11439603B2, “Compositions for ameliorating, preventing or treating somnipathy including phloroglucinol as active ingredient and compositions for suppressing intolerance to or alleviating side effects of agonist at benzodiazepine binding site of GABA-A receptor including phloroglucinol as active ingredient” (KOREA FOOD RESEARCH INSTITUTE, priority 2017, dated 2022).

Legend:
[1] = system: C57BL/6N mice; experiment: Sleep architecture analysis (EEG/EMG) after single administration; format: in vivo; conditions: for NREM sleep / REM sleep: EEG recorded for 2 h after oral administration
Protocol: C57BL/6N mice (28-30 g, 12-week old male) were received from Koatech Co. Ltd. (Pyeongtaek, Gyeonggi-do, Korea) and acclimated to the vivarium for a period of one week before testing was conducted. The animals were housed at a temperature of 23±1° C., a humidity of 55±5%, and a light intensity of 3000 Lux under a 12 h light-dark cycle (light on from 07:00 to 19:00). The animals had ad libitum access to food and water. All animals were maintained in accordance with the guidelines for the Institutional Animal Care and Use Committee of the Korea Food Research Institute (KFRI-IACUC).
C57BL/6N mice were acclimated for a period of one week and received electrode implantation for electroencephalogram (EEG) and electromyogram (EMG) recordings. Each mouse was anesthetized with pentobarbital (50 mg/kg, i.p.) and its head was fixed in a stereotaxic instrument. After the subcutaneous connective tissue of the head was incised, an EEG/EMG headmount (Pinnacle Technology Inc., Lawrence, Kans., USA) was implanted for EEG and EMG recordings, fixed with dental cement, and closed with sutures. The surgical site was sterilized and an antibiotic was administered for 3 days to prevent possible inflammation after surgery. The animal was allowed to recover for 7 days. For adaptation to the recording conditions, 0.5% CMC-saline solution used as a control was administered orally from 4 days before measurement. Thereafter, the recording instrument was connected to induce acclimation of the animal to this experimental procedure.
After oral administration of a sample, the animal was stabilized for 5 min. Then, EEG and EMG were recorded using PAL-8200 series (Pinnacle Technology Inc., Lawrence, Kans., USA) for 24 h from 17:00. The sampling rate for EEG and EMG recordings was set to 200 Hz (epoch time: 10 s). The filtering range was set to 0.1-25 Hz for EEG data recording and 10-100 Hz for EMG data recording.
Sleep architecture analysis was conducted according to the fast Fourier transform (FFT) algorithm using the SleepSign program (Ver. 3.0, Kissei Comtec Inc., Matsumoto, Nagono, Japan).
The results were divided into three stages: Wake, REMS (rapid eye movement sleep, theta band: 6-10 Hz) and NREMS (non-rapid eye movement sleep, delta band: 0.5-4 Hz). Sleep latency was defined as the time required for NREM sleep with 10 s epoch to occur consecutively at least 12 times (Blanco-Centurion et al., 2006). The values in the 0.5-4 Hz range were averaged and the delta power during NREM sleep was expressed in percent relative to the control.
All animal experimental data were expressed as mean±standard deviation.

[2] = system: GABAA-benzodiazepine; conditions: compared with other phlorotannins and diazepams; cited from earlier work
[3] = system: GABAA-benzodiazepine receptor; experiment: Mechanism of action for sleep enhancement: flumazenil given 15 min before oral sample, EEG/EMG; format: in vivo, mice
Protocol: To investigate the mechanism of action for sleep enhancement, flumazenil, an antagonist of the GABAA-benzodiazepine receptor, was administered 15 min before oral administration of phloroglucinol and EEG and EMG were recorded by the same method as described in Experimental Example 1.
In this example, zolpidem was used as a positive control.

[4] = system: C57BL/6N mice; experiment: Sleep architecture (EEG) during long-term administration for 21 days and 2-day withdrawal; format: in vivo
Protocol: Experimental animals were prepared and their sleep architecture was analyzed in the same manner as in Experimental Example 1. As in the single administration in Experimental Example 1, the mice were allowed to recover for 7 days after surgery and acclimated for 4 days. Thereafter, baselines (BL) were measured on day 0 after acclimation and a sample was administered orally to each animal for 21 days. EEGs were recorded on days 1, 7, 14, and 21. EEGs were recorded and analyzed during the subsequent 2-day withdrawal. FIG. 8 is a flow diagram of an experiment for sleep architecture analysis during long-term administration.
EEGs were recorded for the mice on days 0, 1, 7, 14, and 21 during long-term administration of each sample for 3 weeks. The recorded EEGs were analyzed.

[5] = administered alone at doses of 25 to 50 mg/kg; cited from earlier work
[6] = oral once daily for 3 weeks, phloroglucinol 100 mg/kg, zolpidem 5 mg/kg
[7] = oral once daily for 3 weeks, phloroglucinol 100 mg/kg, zolpidem 5 mg/kg, or both

## CN1C(=O)CN=C(c2ccccc2)c2cc(Cl)ccc21 [diazepam]
[1]; 5 mg/kg diazepam (data not shown)
  delta activity in the range of 0.5-4 Hz: significantly reduced

## Oc1cc(O)cc(O)c1 [phloroglucinol]
[2]
  IC50: much lower
  binding affinity (Ki): much lower
[3]; treated with flumazenil 15 min before oral administration
  amount of NREM sleep: level similar to that of a negative control
[3]; untreated with flumazenil
  NREM sleep: increased NREM sleep
[4]; [6]
  NREM sleep duration compared to baseline (BL): increase
  intolerance on long-term administration: no intolerance
  sleep latency compared to baseline (BL): significant reduction
[4]; phloroglucinol 100 mg/kg alone or with zolpidem 5 mg/kg, once daily
  persistence of NREM sleep-enhancing effect from day 1 to day 21: lasted similarly from day 1 to day 21
[5]
  sleep duration: increasing sleep duration
  sleep latency: effective in reducing sleep latency
[1]
  NREM sleep: increased NREM sleep in a concentration-dependent manner
  REM sleep: without affecting REM sleep
[1]; oral, up to 150 mg/kg alone
  delta activity during NREM sleep: no significant change
[1]; single administration 150 mg/kg
  time after administration for which NREM sleep was significantly increased: 2 h
[1]; single oral administration, all concentrations (50, 100 and 150 mg/kg)
  sleep latency compared to negative control (vehicle): significantly reduced

## Cc1ccc(-c2nc3ccc(C)cn3c2CC(=O)N(C)C)cc1 [zolpidem, N,N,6-trimethyl-2-p-tolylimidazo[1,2-a]pyridine-3-acetamide L-(+)-tartrate (2:1)]
[3]; flumazenil administered before sample, positive control
  sleep-enhancing effect with flumazenil: completely blocked
[4]; day 1, zolpidem 5 mg/kg alone or with phloroglucinol 100 mg/kg
  time for which NREM sleep duration was significantly increased compared to baseline: 3 h
[4]; day 21, zolpidem 5 mg/kg alone
  time for which NREM sleep duration was significantly increased compared to baseline: 1 h
[4]; days 1, 7, and 14 of long-term administration, zolpidem 5 mg/kg, p<0.01
  delta activity compared to baseline: significant reductions
[4]; [6]
  NREM sleep duration compared to baseline (BL): significant increase
  intolerance on long-term administration: demonstrating intolerance
  sleep latency compared to baseline (BL): significant reduction
[4]; [7]
  NREM sleep duration with increasing administration period (third week / day 21 versus first day): significant difference
  sleep latency with increasing administration period (third week / days 7, 14, 21 versus first day): significant difference
[1]; 5 mg/kg
  residual sedation: slight residual sedation
  time after administration for which NREM sleep was significantly increased: 3 h
  time after administration for which vigilance was significantly reduced: up to 9 h
[1]; 10 mg/kg alone
  NREM sleep at 14 h after administration (residual sedative effect): significantly increased
  time after administration for which the sleep-enhancing effect lasted: 4 h
[1]; 10 mg/kg, 2 h after oral administration, p<0.01
  increase of NREM sleep duration: 74.6%
[1]
  NREM sleep: increased NREM sleep in a concentration-dependent manner
  REM sleep: without affecting REM sleep
[1]; oral 5 mg/kg, p<0.01
  delta activity in the range of 0.5-4 Hz during NREM sleep: significantly reduce
[1]; oral 10 mg/kg, p<0.01
  delta activity in the range of 0.5-4 Hz during NREM sleep: significantly reduce
[1]; single administration of zolpidem 10 mg/kg
  reduction of sleep latency: ~44 min
[1]; single administration, 5 and 10 mg/kg
  sleep latency compared to negative control (vehicle): significantly reduced
